Source: US10793564B2, “Amino acid compounds and methods of use” (Pliant Therapeutics, Inc., priority 2018, dated 2020)

Biological target: recombinant human integrin αVβ6 (Homo sapiens (Human), UniProt P06756+P18564)
Assay: Solid phase integrin αVβ6 binding assay
Settings: inhibition of recombinant TGFβ1 LAP binding to coated integrin, IC50 presented in four ranges, read-out: αvβ6 Inhibition IC50 (nM) - range
In short: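 Plates coated with recombinant human αVβ6 (2 μg/mL) and blocked; compounds competed with TGFβ1 LAP (0.67 μg/mL) in Mn2+ (0.5 mM)/BSA/sucrose TBS for 2 h at 25° C. Bound LAP detected by biotin anti-LAP and peroxidase-streptavidin; IC50 by four-parameter logistic fit.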

recombinant human integrin αVβ6, sequence (P06756 31-992): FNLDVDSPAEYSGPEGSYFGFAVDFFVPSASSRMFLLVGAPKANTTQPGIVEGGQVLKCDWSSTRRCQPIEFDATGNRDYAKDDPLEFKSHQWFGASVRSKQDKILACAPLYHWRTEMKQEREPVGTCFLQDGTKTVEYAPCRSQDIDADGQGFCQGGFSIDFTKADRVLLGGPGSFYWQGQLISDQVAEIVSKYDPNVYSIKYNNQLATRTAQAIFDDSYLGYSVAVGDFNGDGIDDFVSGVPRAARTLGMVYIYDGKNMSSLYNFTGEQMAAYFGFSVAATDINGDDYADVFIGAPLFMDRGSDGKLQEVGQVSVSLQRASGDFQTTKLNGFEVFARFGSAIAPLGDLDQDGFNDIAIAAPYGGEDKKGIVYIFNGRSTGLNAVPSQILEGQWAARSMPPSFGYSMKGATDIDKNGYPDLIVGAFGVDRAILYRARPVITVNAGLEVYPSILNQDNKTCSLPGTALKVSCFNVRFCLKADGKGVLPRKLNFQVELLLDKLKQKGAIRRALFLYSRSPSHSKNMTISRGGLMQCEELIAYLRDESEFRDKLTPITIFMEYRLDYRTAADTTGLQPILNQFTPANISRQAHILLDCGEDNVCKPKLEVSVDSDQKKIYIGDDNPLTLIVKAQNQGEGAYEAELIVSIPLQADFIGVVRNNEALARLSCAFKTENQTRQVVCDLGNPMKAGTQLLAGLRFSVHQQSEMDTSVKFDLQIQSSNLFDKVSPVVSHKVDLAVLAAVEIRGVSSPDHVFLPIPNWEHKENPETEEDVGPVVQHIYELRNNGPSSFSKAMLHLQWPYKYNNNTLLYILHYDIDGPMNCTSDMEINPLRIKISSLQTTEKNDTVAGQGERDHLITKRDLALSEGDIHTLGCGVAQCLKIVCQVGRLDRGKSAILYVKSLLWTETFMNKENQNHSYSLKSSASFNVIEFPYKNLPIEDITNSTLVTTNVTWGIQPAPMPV
recombinant human integrin αVβ6, sequence (P18564 22-707): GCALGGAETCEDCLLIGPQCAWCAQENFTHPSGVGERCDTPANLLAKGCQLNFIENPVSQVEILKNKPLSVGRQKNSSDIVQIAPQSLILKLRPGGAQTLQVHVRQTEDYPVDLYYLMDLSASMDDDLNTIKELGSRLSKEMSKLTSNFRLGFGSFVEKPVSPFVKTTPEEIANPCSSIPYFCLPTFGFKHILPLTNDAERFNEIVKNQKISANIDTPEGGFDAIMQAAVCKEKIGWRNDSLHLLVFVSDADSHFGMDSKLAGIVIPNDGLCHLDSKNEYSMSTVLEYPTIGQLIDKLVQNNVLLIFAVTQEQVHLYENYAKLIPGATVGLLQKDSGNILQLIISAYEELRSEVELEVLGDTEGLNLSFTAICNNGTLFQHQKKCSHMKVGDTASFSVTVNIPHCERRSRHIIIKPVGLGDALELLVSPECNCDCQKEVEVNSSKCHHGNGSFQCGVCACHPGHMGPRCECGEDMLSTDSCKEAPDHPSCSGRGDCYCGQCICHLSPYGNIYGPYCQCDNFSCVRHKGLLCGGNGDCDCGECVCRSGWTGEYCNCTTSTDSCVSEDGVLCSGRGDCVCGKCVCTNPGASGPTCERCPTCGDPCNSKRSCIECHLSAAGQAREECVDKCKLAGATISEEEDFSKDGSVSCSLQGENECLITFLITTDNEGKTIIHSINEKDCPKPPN

`O=C(O)[C@H](CCN(CCCCc1ccc2c(n1)NCCC2)CC(F)F)Nc1ncncc1-c1ccccc1` [Compound 119, (S)-4-((2,2-difluoroethyl) (4-(5,6,7,8-tetrahydro-1,8-naphthyridin-2-yl)butyl)amino)-2-((5-phenylpyrimidin-4-yl)amino) butanoic Acid] and `O=C(O)[C@H](CCN(CCCCc1ccc2c(n1)NCCC2)CC(F)F)Nc1cc(-c2ccccc2)ncn1` [Compound 142, (S)-4-((2,2-difluoroethyl) (4-(5,6,7,8-tetrahydro-1,8-naphthyridin-2-yl)butyl)amino)-2-((6-phenylpyrimidin-4-yl)amino) butanoic Acid] cannot be ordered by IC50: > 1000 nM for the first, > 1000 nM for the second.

`O=C(O)[C@H](CCN(CCCCc1ccc2c(n1)NCCC2)CC(F)F)Nc1ccncn1` [Compound 120, (S)-4-((2,2-difluoroethyl) (4-(5,6,7,8-tetrahydro-1,8-naphthyridin-2-yl)butyl)amino)-2-(pyrimidin-4-ylamino) butanoic Acid] and `O=C(O)[C@H](CCN(CCCCc1ccc2c(n1)NCCC2)CC(F)F)Nc1ncc(F)cn1` [Compound 121, (S)-4-((2,2-difluoroethyl) (4-(5,6,7,8-tetrahydro-1,8-naphthyridin-2-yl)butyl)amino)-2-((5-fluoropyrimidin-2-yl)amino) butanoic Acid] cannot be ordered by IC50: > 1000 nM for the first, > 1000 nM for the second.

First: Cc1cc(N[C@@H](CCN(CCCCc2ccc3c(n2)NCCC3)CC(F)F)C(=O)O)nc(-c2ccncc2)n1 [Compound 122, (S)-4-((2,2-difluoroethyl) (4-(5,6,7,8-tetrahydro-1,8-naphthyridin-2-yl)butyl)amino)-2-((6-methyl-2-(pyridin-4-yl)pyrimidin-4-yl)amino) butanoic Acid]
Second: O=C(O)[C@H](CCN(CCCCc1ccc2c(n1)NCCC2)CC(F)F)Nc1ncc(C2CC2)cn1 [Compound 146, (S)-2-((5-cyclopropylpyrimidin-2-yl)amino)-4-((2,2-difluoroethyl) (4-(5,6,7,8-tetrahydro-1,8-naphthyridin-2-yl)butyl)amino) butanoic Acid]
The IC50 of the first is lower: 250 to 1000 nM for the first, > 1000 nM for the second. The first is the more potent here.

First: Cn1ncc2c(N[C@@H](CCN(CCCCc3ccc4c(n3)NCCC4)CCOc3ccc(F)cc3)C(=O)O)ncnc21 [Compound 123, (S)-4-((2-(4-fluorophenoxy)ethyl) (4-(5,6,7,8-tetrahydro-1,8-naphthyridin-2-yl)butyl)amino)-2-((1-methyl-1H-pyrazolo[3,4-d]pyrimidin-4-yl)amino) butanoic Acid]
Second: O=C(O)[C@H](CCN(CCCCc1ccc2c(n1)NCCC2)CCOc1ccc(F)cc1)Nc1ncnc2[nH]ncc12 [Compound 143, (S)-2-((1H-pyrazolo[3,4-d]pyrimidin-4-yl)amino)-4-((2-(4-fluorophenoxy)ethyl) (4-(5,6,7,8-tetrahydro-1,8-naphthyridin-2-yl)butyl)amino) butanoic Acid]
The IC50 of the first is lower: < 50 nM for the first, 50 to 250 nM for the second. The first is the more potent here.

First: CO[C@H](C)CN(CCCCc1ccc2c(n1)NCCC2)CC[C@H](Nc1ncc(C2CC2)cn1)C(=O)O [Compound 124, (S)-2-((5-cyclopropylpyrimidin-2-yl)amino)-4-(((R)-2-methoxypropyl) (4-(5,6,7,8-tetrahydro-1,8-naphthyridin-2-yl)butyl)amino) butanoic Acid]
Second: CN(C)C(=O)CN(CCCCc1ccc2c(n1)NCCC2)CC[C@H](Nc1ncc(C(F)(F)F)cn1)C(=O)O [Compound 141, (S)-4-((2-(dimethylamino)-2-oxoethyl) (4-(5,6,7,8-tetrahydro-1,8-naphthyridin-2-yl)butyl)amino)-2-((5-(trifluoromethyl)pyrimidin-2-yl)amino) butanoic Acid]
The IC50 of the first is lower: < 50 nM for the first, 50 to 250 nM for the second.

Compared with `CS(=O)(=O)CCN(CCCCc1ccc2c(n1)NCCC2)CC[C@H](Nc1ncnc2[nH]ncc12)C(=O)O` [Compound 125, (S)-2-((1H-pyrazolo[3,4-d]pyrimidin-4-yl)amino)-4-((2-(methylsulfonyl)ethyl) (4-(5,6,7,8-tetrahydro-1,8-naphthyridin-2-yl)butyl)amino) butanoic Acid], `CS(=O)(=O)CCN(CCCCc1ccc2c(n1)NCCC2)CC[C@H](Nc1cc(-n2cccn2)ncn1)C(=O)O` [Compound 126, (S)-2-((6-(1H-pyrazol-1-yl)pyrimidin-4-yl)amino)-4-((2-(methylsulfonyl)ethyl) (4-(5,6,7,8-tetrahydro-1,8-naphthyridin-2-yl)butyl)amino) butanoic Acid] is higher in IC50: 50 to 250 nM for the first, > 1000 nM for the second. The first is the more potent here.

Going from `COC[C@@H](F)CN(CCCCc1ccc2c(n1)NCCC2)CC[C@H](Nc1cc(-c2ccccc2)ncn1)C(=O)O` [Compound 128, (S)-4-(((S)-2-fluoro-3-methoxypropyl) (4-(5,6,7,8-tetrahydro-1,8-naphthyridin-2-yl)butyl)amino)-2-((6-phenylpyrimidin-4-yl)amino) butanoic Acid] to `O=C(O)[C@H](CCN(CCCCc1ccc2c(n1)NCCC2)CC(CO)CO)Nc1ncnc2ccccc12` [Compound 130, (S)-4-((3-hydroxy-2-(hydroxymethyl)propyl) (4-(5,6,7,8-tetrahydro-1,8-naphthyridin-2-yl)butyl)amino)-2-(quinazolin-4-ylamino) butanoic Acid], the IC50 falls from > 1000 nM to < 50 nM. The second is the more potent here.

First: O=C(O)[C@H](CCN(CCCCc1ccc2c(n1)NCCC2)CC1CCO1)Nc1ncnc2ccccc12 (stereo partly drawn) [Compound 129, (2S)-4-((oxetan-2-ylmethyl) (4-(5,6,7,8-tetrahydro-1,8-naphthyridin-2-yl)butyl)amino)-2-(quinazolin-4-ylamino) butanoic Acid]
Second: O=C(O)[C@H](CCN(CCCCc1ccc2c(n1)NCCC2)CC1(F)COC1)Nc1ncnc2ccccc12 [Compound 147, (S)-4-(((3-fluorooxetan-3-yl)methyl) (4-(5,6,7,8-tetrahydro-1,8-naphthyridin-2-yl)butyl)amino)-2-(quinazolin-4-ylamino) butanoic Acid]
The IC50 of the first is lower: < 50 nM for the first, 50 to 250 nM for the second. The first is the more potent here.

Compared with `O=C(O)[C@H](CCN(CCCCc1ccc2c(n1)NCCC2)CCC(F)F)Nc1ncc(C(F)(F)F)cn1` [Compound 132, (S)-4-((3,3-difluoropropyl) (4-(5,6,7,8-tetrahydro-1,8-naphthyridin-2-yl)butyl)amino)-2-((5-(trifluoromethyl)pyrimidin-2-yl)amino) butanoic Acid], `O=C(O)[C@H](CCN(CCCF)CCCCc1ccc2c(n1)NCCC2)Nc1ncc(C(F)(F)F)cn1` [Compound 137, (S)-4-((3-fluoropropyl) (4-(5,6,7,8-tetrahydro-1,8-naphthyridin-2-yl)butyl)amino)-2-((5-(trifluoromethyl)pyrimidin-2-yl)amino) butanoic Acid] is lower in IC50: 50 to 250 nM for the first, < 50 nM for the second. The second is the more potent here.

First: Cn1ncc2c(N[C@@H](CCN(CCCCc3ccc4c(n3)NCCC4)CCC(F)F)C(=O)O)ncnc21 [Compound 133, (S)-4-((3,3-difluoropropyl) (4-(5,6,7,8-tetrahydro-1,8-naphthyridin-2-yl)butyl)amino)-2-((1-methyl-1H-pyrazolo[3,4-d]pyrimidin-4-yl)amino) butanoic Acid]
Second: Cn1ncc2c(N[C@@H](CCN(CCCF)CCCCc3ccc4c(n3)NCCC4)C(=O)O)ncnc21 [Compound 136, (S)-4-((3-fluoropropyl) (4-(5,6,7,8-tetrahydro-1,8-naphthyridin-2-yl)butyl)amino)-2-((1-methyl-1H-pyrazolo[3,4-d]pyrimidin-4-yl)amino) butanoic Acid]
The IC50 of the first is higher: 50 to 250 nM for the first, < 50 nM for the second. The second is the more potent here.

First: O=C(O)[C@H](CCN(CCCCc1ccc2c(n1)NCCC2)CCC(F)F)Nc1ccnc(C(F)(F)F)n1 [Compound 134, (S)-4-((3,3-difluoropropyl) (4-(5,6,7,8-tetrahydro-1,8-naphthyridin-2-yl)butyl)amino)-2-((2-(trifluoromethyl)pyrimidin-4-yl)amino) butanoic Acid]
Second: CN(C)C(=O)CN(CCCCc1ccc2c(n1)NCCC2)CC[C@H](Nc1ccnc(C(F)(F)F)n1)C(=O)O [Compound 145, (S)-4-((2-(dimethylamino)-2-oxoethyl) (4-(5,6,7,8-tetrahydro-1,8-naphthyridin-2-yl)butyl)amino)-2-((2-(trifluoromethyl)pyrimidin-4-yl)amino) butanoic Acid]
The IC50 of the first is higher: 50 to 250 nM for the first, < 50 nM for the second. The second is the more potent here.

First: N#Cc1cnc(N[C@@H](CCN(CCCCc2ccc3c(n2)NCCC3)CCOc2ccc(F)cc2)C(=O)O)nc1 [Compound 138, (S)-2-((5-cyanopyrimidin-2-yl)amino)-4-((2-(4-fluorophenoxy)ethyl) (4-(5,6,7,8-tetrahydro-1,8-naphthyridin-2-yl)butyl)amino) butanoic Acid]
Second: O=C(O)[C@H](CCN(CCCCc1ccc2c(n1)NCCC2)CCOc1ccc(F)cc1)Nc1ncc(Br)cn1 [Compound 144, (S)-2-((5-bromopyrimidin-2-yl)amino)-4-((2-(4-fluorophenoxy)ethyl) (4-(5,6,7,8-tetrahydro-1,8-naphthyridin-2-yl)butyl)amino) butanoic Acid]
The IC50 of the first is lower: < 50 nM for the first, 50 to 250 nM for the second. The first is the more potent here.

`O=C(O)[C@H](CCN(CCCCc1ccc2c(n1)NCCC2)CCOc1ccc(F)cc1)Nc1ncc(C(F)(F)F)cn1` [Compound 139, (S)-4-((2-(4-fluorophenoxy)ethyl) (4-(5,6,7,8-tetrahydro-1,8-naphthyridin-2-yl)butyl)amino)-2-((5-(trifluoromethyl)pyrimidin-2-yl)amino) butanoic Acid] and `CN(C)C(=O)CN(CCCCc1ccc2c(n1)NCCC2)CC[C@H](Nc1ncnc2c1cnn2C)C(=O)O` [Compound 140, (S)-4-((2-(dimethylamino)-2-oxoethyl) (4-(5,6,7,8-tetrahydro-1,8-naphthyridin-2-yl)butyl)amino)-2-((1-methyl-1H-pyrazolo[3,4-d]pyrimidin-4-yl)amino) butanoic Acid] cannot be ordered by IC50: < 50 nM for the first, < 50 nM for the second.
